Reference: ChEMBL document CHEMBL4831511, “Fluorovinylsulfones and -Sulfonates as Potent Covalent Reversible Inhibitors of the Trypanosomal Cysteine Protease Rhodesain: Structure-Activity Relationship, Inhibition Mechanism, Metabolism, and In Vivo Studies” (J Med Chem, 2021)
Values belong to the molecule of their own block, whether it stands above or below them. Activity calls are given as the source filed them. No cut-off for these calls is given here.

Legend:
Rhodesain [1] = molecular target: T1, Rhodesain (Trypanosoma brucei rhodesiense, UniProt Q95PM0); experiment: Inhibition of Trypanosoma brucei rhodesain assessed as fluorescence using Cbz-Phe-Arg-AMC as substrate measured at second inhibition step by fluorometric enzyme assays
T1 sequence (Q95PM0 whole entry): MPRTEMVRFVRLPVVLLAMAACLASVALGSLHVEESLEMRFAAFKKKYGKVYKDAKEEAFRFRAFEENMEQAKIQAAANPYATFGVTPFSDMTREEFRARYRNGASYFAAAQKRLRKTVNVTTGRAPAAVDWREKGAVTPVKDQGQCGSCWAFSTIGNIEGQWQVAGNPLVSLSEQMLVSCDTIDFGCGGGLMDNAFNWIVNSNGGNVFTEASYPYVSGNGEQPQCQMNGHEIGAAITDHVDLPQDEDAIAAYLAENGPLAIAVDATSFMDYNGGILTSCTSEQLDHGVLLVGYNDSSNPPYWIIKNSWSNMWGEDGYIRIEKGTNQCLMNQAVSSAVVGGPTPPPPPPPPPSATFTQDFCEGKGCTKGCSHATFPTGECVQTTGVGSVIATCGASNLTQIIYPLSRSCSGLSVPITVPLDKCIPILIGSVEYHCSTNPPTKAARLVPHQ

[2] = molecular target: Proteasome Macropain subunit (Homo sapiens) (UniProt P49721); experiment: Inhibition of trypsin-like activity of human 20S proteasome at 11 uM using boc-Leu-Arg-Arg-AMC as fluorogenic substrate by microplate reader relative to control
Chain of Proteasome Macropain subunit (Homo sapiens) (P49721 whole entry): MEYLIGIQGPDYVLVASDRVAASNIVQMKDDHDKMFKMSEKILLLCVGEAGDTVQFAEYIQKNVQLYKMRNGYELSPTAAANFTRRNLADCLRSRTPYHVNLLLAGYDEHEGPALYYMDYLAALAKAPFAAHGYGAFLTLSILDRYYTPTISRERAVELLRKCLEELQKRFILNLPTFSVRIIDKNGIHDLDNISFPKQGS

Homo sapiens [3] = species on record: Homo sapiens; experiment: Inhibition of caspase-like activity of human 20S proteasome at 11 uM using Cbz-Leu-Leu-Glu-AMC as fluorogenic substrate by microplate reader relative to control
Homo sapiens [4] = species on record: Homo sapiens; experiment: Inhibition of alpha-chymotrypsin-like activity of human 20S proteasome at 11 uM using Succ-Leu-Leu-Val-Tyr-AMC as fluorogenic substrate by microplate reader relative to control
[5] = test system: Trypanosoma brucei brucei; experiment: Antiprotozoal activity against Trypanosoma brucei brucei BS449 assessed as luminescence incubated for 24 to 48 hrs by ATPlite assay; format: functional, organism-based
J774.1 = experiment: Cytotoxicity against mouse J774.1 cells by Alamar blue assay; format: functional
HeLa = experiment: Cytotoxicity against human HeLa cells by Alamar blue assay; format: functional
Dengue virus = experiment: Inhibition of Dengue virus NS2B-NS3 protease assessed as fluorescent emission using boc-Gly-Arg-Arg-AMC at 11 uM by microplate reader relative to control
Rhodesain [6] = molecular target: T1, Rhodesain; experiment: Inhibition of Trypanosoma brucei rhodesain assessed as fluorescence using Cbz-Phe-Arg-AMC as substrate measured using Dixon equation by fluorometric enzyme assays
Procathepsin L [7] = molecular target: T2, Procathepsin L (Homo sapiens, UniProt P07711); experiment: Inhibition of human liver CatL assessed as fluorescence using Cbz-Phe-Arg-AMC as substrate measured at second inhibition step by fluorometric enzyme assays
T2 sequence (P07711 whole entry): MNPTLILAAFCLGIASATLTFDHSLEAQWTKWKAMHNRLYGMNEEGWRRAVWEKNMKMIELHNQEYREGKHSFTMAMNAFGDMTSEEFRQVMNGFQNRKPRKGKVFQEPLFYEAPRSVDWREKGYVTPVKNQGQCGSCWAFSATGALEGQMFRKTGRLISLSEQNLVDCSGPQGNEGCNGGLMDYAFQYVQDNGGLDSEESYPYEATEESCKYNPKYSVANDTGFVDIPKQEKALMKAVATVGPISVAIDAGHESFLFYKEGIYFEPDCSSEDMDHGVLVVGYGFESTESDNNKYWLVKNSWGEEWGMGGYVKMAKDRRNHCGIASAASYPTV

Procathepsin L [8] = molecular target: T2, Procathepsin L; experiment: Inhibition of human CatL assessed as fluorescence using Cbz-Phe-Arg-AMC as substrate measured using Dixon equation by fluorometric enzyme assays; parameters: species or system Liver
Cathepsin B [9] = molecular target: T3, Cathepsin B (Homo sapiens, UniProt P07858); experiment: Inhibition of human liver CatB assessed as fluorescence using Cbz-Phe-Arg-AMC as substrate by fluorometric enzyme assays
[10] = test system: cathepsin L (CatL) versus rhodesain; experiment: Selectivity index, ratio of Ki for human liver CatL to Trypanosoma brucei rhodesain; settings: read-out: Selectivity Index
[11] = molecular target: Rhodesain (Trypanosoma brucei rhodesiense) (UniProt Q95PM0); experiment: Inhibition of Trypanosoma brucei rhodesain assessed as rate constant of association using Cbz-Phe-Arg-AMC as substrate by fluorometric enzyme assays
Chain of Rhodesain (Trypanosoma brucei rhodesiense) (Q95PM0 1-450): as the sequence (Q95PM0 whole entry) above

[12] = molecular target: Rhodesain (Trypanosoma brucei rhodesiense) (UniProt Q95PM0); experiment: Inhibition of Trypanosoma brucei rhodesain assessed as rate constant of dissociation of the final complex using Cbz-Phe-Arg-AMC as substrate by fluorometric enzyme assays
[13] = molecular target: Rhodesain (Trypanosoma brucei rhodesiense) (UniProt Q95PM0); experiment: Binding affinity to Trypanosoma brucei rhodesain assessed as protein-ligand adducts by MALDI-TOF MS analysis
Cathepsin B [14] = molecular target: T3, Cathepsin B; experiment: Inhibition of human liver CatB assessed as fluorescence using Cbz-Phe-Arg-AMC as substrate at 11 uM by fluorometric enzyme assays
[15] = molecular target: Rhodesain (Trypanosoma brucei rhodesiense) (UniProt Q95PM0); experiment: Reversible inhibition of Trypanosoma brucei rhodesain assessed as reversibility by measuring residual enzymatic activity using Cbz-Phe-Arg-AMC as substrate after 1 hr by fluorometry based dialysis experiment relative to control
[16] = test system: Trypanosoma brucei brucei; experiment: Antiprotozoal activity against Trypanosoma brucei brucei TC211 assessed as luminescence incubated for 24 to 48 hrs by ATPlite assay; format: functional, organism-based

SMILES: Cc1ccc(C[C@H](NC(=O)c2cc(F)cc(F)c2)C(=O)N[C@H](/C=C(\F)S(=O)(=O)c2ccccc2)CCc2ccccc2)cc1
Ki (Rhodesain [1]): 0.1 µM

SMILES: Cc1ccc(C[C@H](NC(=O)c2ccncc2)C(=O)N[C@H](/C=C/S(=O)(=O)Oc2ccccc2)CCc2ccccc2)cc1
Ki (Rhodesain [1]): 0.00045 µM

inhibition [2]: inactive | inhibition (Homo sapiens [3]): 26% | inhibition (Homo sapiens [4]): inactive
SMILES: O=C(N[C@@H](Cc1ccccc1)C(=O)N[C@H](/C=C(\F)S(=O)(=O)c1ccccc1)CCc1ccccc1)c1ccc2c(c1)OCCO2

EC50 [5]: 3 µM | inhibition [2]: 14% | inhibition (Homo sapiens [3]): inactive | inhibition (Homo sapiens [4]): 71% | inhibition (Dengue virus): 13%
SMILES: CN1CCN(C(=O)N[C@@H](Cc2ccccc2)C(=O)N[C@H](/C=C(\F)S(=O)(=O)c2ccccc2)CSCc2ccccc2)CC1
CC50 (J774.1): 8.7 µM | CC50 (HeLa): 8 µM

SMILES: O=C(N[C@@H](Cc1ccccc1)C(=O)N[C@H](/C=C(\F)S(=O)(=O)c1ccccc1)CCc1ccccc1)c1cc(F)cc(F)c1
Ki (Rhodesain [1]): 0.35 µM

SMILES: Cc1cccc(C[C@H](NC(=O)c2ccc3c(c2)OCCO3)C(=O)N[C@H](/C=C(\F)S(=O)(=O)c2ccccc2)CCc2ccccc2)c1
Ki (Rhodesain [1]): 0.035 µM

EC50 [5]: 14.1 µM | inhibition [2]: inactive | inhibition (Homo sapiens [3]): 18% | inhibition (Homo sapiens [4]): inactive
SMILES: CSCC[C@@H](/C=C(\F)S(=O)(=O)c1ccccc1)NC(=O)[C@H](Cc1ccccc1)NC(=O)N1CCN(C)CC1
CC50 (J774.1): 43 µM | CC50 (HeLa): 77 µM

SMILES: O=C(N[C@@H](Cc1ccccc1)C(=O)N[C@H](/C=C(\F)S(=O)(=O)Oc1ccccc1)CCc1ccccc1)c1ccncc1
Ki (Rhodesain [1]): 0.098 µM | Ki (Rhodesain [6]): 0.015 µM | Ki (Procathepsin L [7]): 0.258 µM | Ki (Procathepsin L [8]): 0.06 µM | Ki (Cathepsin B [9]): 1.7 µM | selectivity ratio [10]: 4 | K [11]: 0.055 s⁻¹ | K [12]: 0.01 s⁻¹ | Activity [13]: Active | EC50 [5]: 4.8 µM | CC50 (HeLa): > 100 µM | inhibition [2]: inactive | inhibition (Homo sapiens [3]): 22% | inhibition (Homo sapiens [4]): 11% | inhibition (Dengue virus): inactive

SMILES: Cc1ccc(C[C@H](NC(=O)c2ccncc2)C(=O)N[C@H](/C=C(\F)S(=O)(=O)Oc2ccccc2)CCc2ccccc2)cc1
Ki (Rhodesain [1]): 0.024 µM | Ki (Rhodesain [6]): 0.003 µM | Ki (Procathepsin L [7]): 0.313 µM | Ki (Procathepsin L [8]): 0.078 µM | selectivity ratio [10]: 26 | inhibition (Cathepsin B [14]): 38% | K [11]: 0.075 s⁻¹ | K [12]: 0.01 s⁻¹ | Activity [15]: 89% | EC50 [16]: 1.9 µM | CC50 (HeLa): > 100 µM | inhibition [2]: 10% | inhibition (Homo sapiens [3]): 44% | inhibition (Homo sapiens [4]): 20% | inhibition (Dengue virus): inactive

SMILES: Cc1ccc(C[C@H](NC(=O)c2ccc3c(c2)OCCO3)C(=O)N[C@H](/C=C(\F)S(=O)(=O)Cc2ccccc2)CCc2ccccc2)cc1
Ki (Rhodesain [1]): 0.014 µM | Ki (Procathepsin L [7]): 0.076 µM | selectivity ratio [10]: 6 | inhibition (Cathepsin B [14]): 8%

SMILES: O=C(N[C@@H](Cc1ccccc1)C(=O)N[C@H](/C=C(\F)S(=O)(=O)Cc1ccccc1)CCc1ccccc1)c1ccncc1
Ki (Rhodesain [1]): 0.053 µM | Ki (Procathepsin L [7]): 0.226 µM | inhibition (Cathepsin B [14]): 44%

SMILES: CSCC[C@@H](/C=C(\F)S(=O)(=O)c1ccccc1)NC(=O)[C@H](Cc1ccccc1)NC(=O)c1ccncc1
Ki (Rhodesain [1]): 0.056 µM | Ki (Procathepsin L [7]): 0.577 µM | Ki (Cathepsin B [9]): 1 µM | selectivity ratio [10]: 10

SMILES: Cc1ccc(C[C@H](NC(=O)c2cc(F)cc(F)c2)C(=O)N[C@H](/C=C(\F)S(=O)(=O)Oc2ccccc2)CCc2ccccc2)cc1
Ki (Rhodesain [1]): 0.034 µM | Ki (Rhodesain [6]): 0.005 µM | K [11]: 0.049 s⁻¹ | K [12]: 0.009 s⁻¹

SMILES: O=C(N[C@@H](Cc1ccccc1)C(=O)N[C@H](/C=C(/F)S(=O)(=O)Oc1ccccc1)CCc1ccccc1)c1ccncc1
Ki (Rhodesain [1]): 0.525 µM | Activity [13]: Active

SMILES: O=C(N[C@@H](Cc1ccccc1)C(=O)N[C@H](/C=C(\F)S(=O)(=O)Cc1ccccc1)CCc1ccccc1)c1cc(F)cc(F)c1
Ki (Rhodesain [1]): 0.124 µM

SMILES: Cc1ccc(C[C@H](NC(=O)c2cc(F)cc(F)c2)C(=O)N[C@H](/C=C(\F)S(=O)(=O)Cc2ccccc2)CCc2ccccc2)cc1
Ki (Rhodesain [1]): 0.029 µM

SMILES: O=C(N[C@@H](Cc1ccccc1)C(=O)N[C@H](/C=C(\F)S(=O)(=O)Cc1ccccc1)CCc1ccccc1)c1ccc2c(c1)OCCO2
Ki (Rhodesain [1]): 0.046 µM

SMILES: O=C(N[C@@H](Cc1ccccc1)C(=O)N[C@H](/C=C(\F)S(=O)(=O)Oc1ccccc1)CCc1ccccc1)c1ccc2c(c1)OCCO2
Ki (Rhodesain [1]): 0.045 µM | Ki (Rhodesain [6]): 0.009 µM | K [11]: 0.045 s⁻¹ | K [12]: 0.011 s⁻¹
